Measured values reported in patent publication US20250101062A1, “ANTIMICROBIAL PEPTIDES” (Board of Regents of the University of Nebraska, priority 2023, published 2025).
≈ marks a conversion by molar mass, not a printed value. Read-outs that look alike come from different tables or passages of the source. Where no end group is shown, it is not given here.

Assays:
P. aeruginosa E416-17 = assay type: cell-based, Pseudomonas aeruginosa
Experimental: (§1) Peptide activity against bacteria were tested using the CLSI standard procedure with minor modifications (Clinical and Laboratory Standards Institute (2018) Performance standards for antimicrobial susceptibility testing, 9th ed.; Mishra, et al. (2019) Proc. Natl. Acad. Sci., 116(27):13517-13522). In brief, a peptide concentration gradient with twofold dilution was made in the 96-well polystyrene microplate at 10 μL per well. Bacteria were grown to the exponential phase (i.e., optical density at 600 nm≈0.5), diluted to ˜10^5 CFU/mL in MHB, and partitioned into the 96-well microplate at 90 μL per well. The microplates were incubated at 37° C. overnight and read on a ChroMate® 4300 Microplate Reader at 600 nm (GMI, Ramsey, MN). The peptide concentration in the wells without bacterial growth is the minimal inhibitory concentration (MIC). As the convention, MIC values were represented as ranges.

K. pneumoniae E406-17 = assay type: cell-based, Klebsiella pneumoniae
Experimental: (§2) The following resistant bacterial clinical strains were used in this study: S. aureus USA300 LAC, S. epidermidis 1457, E. coli E423-17, P. aeruginosa E411-17, K. pneumoniae E406-17, and A. baumannii B28-16. While the S. aureus USA300 strain is methicillin-resistant, most of the Gram-negative bacteria contain extended-spectrum beta-lactamase and are resistant to beta-lactam antibiotics. Peptide activity against bacteria was tested using an established lab protocol (Mishra, et al. (2017) Acta Biomater., 49:316-328). In brief, a peptide concentration gradient with twofold dilution was made in the 96-well polystyrene microplate at 10 μL per well. Bacteria were grown to the exponential phase (i.e., optical density at 600 nm≈0.5), diluted to ˜10^5 CFU/mL in different percentages of MHB, TSB, or LB, and partitioned into the 96-well microplate at 90 μL per well. […] They were diluted with autoclaved distilled water to obtain different percentages. The microplates were incubated at 37° C. overnight and read on a ChroMate™ 4300 microplate reader at 600 nm (GMI, Ramsey, MN). The peptide concentration in the wells without bacterial growth is the MIC. As is the convention, MIC values were represented as ranges.
as §1

human red blood cells = experiment: Hemolytic assay; assay type: cell-based; settings: red cells of human
Experimental: The hemolytic effects of peptides were evaluated using a method with minor modifications (Lakshmaiah Narayana, et al. (2021) ACS Infect. Dis., 7:1795-1808). Human red blood cells (hRBCs, UNMC Blood Bank) were washed (3×) with blood bank saline (isotonic solution 0.90% w/v, Fisher). Cells were diluted to 2% using the saline solution, and aliquots of 90 μL were added to a 96-well polystyrene microplate containing 10 μL of serially diluted peptide solutions. After incubation at 37° C. for 1 hour, plates were centrifuged at 500 g for 5 minutes. Aliquots of the supernatant were transferred to a 96-well microplate. The amount of hemoglobin released was measured at 545 nm by using a ChroMate™ microplate reader. […] HC50 is defined as the concentration of the peptide that caused 50% lysis.
The hemolytic effects of peptides were evaluated (Narayana, et al. (2020) Proc. Natl. Acad. Sci., 117(32):19446-9454). In brief, human red blood cells (UNMC Blood Bank) were washed (3×) and diluted to 2% using the saline solution. Aliquots of 90 μL were mixed with 10 μL of serially diluted peptide solutions. After incubation at 37° C. for 1 hour, plates were centrifuged at 500 g for 5 minutes and aliquots of the supernatant were transferred to a new 96-well microplate to measure the amount of hemoglobin released at 545 nm (relative to 1% Triton® X-100) using a ChroMate® Microplate Reader.

S. aureus USA300 LAC = experiment: microbe, parasite or virus in culture; assay type: cell-based, Staphylococcus aureus
Experimental: as §2
(§3) For pH effects on peptide activity, the pH of the medium was adjusted to a targeted pH for the autoclave and then remeasured at room temperature. For salt and serum effects on peptide activity, stock NaCl solution or human serum was added to the media.
as §1
(§4) For pH effects on peptide activity, the pH of the medium was adjusted to a targeted pH for autoclave and then remeasured at room temperature. For salt and serum effects on peptide activity, stock NaCl solution or human serum were added to the media.

[1] = tested on: human keratinocyte HaCaT cells; experiment: Cell viability assay (MTS); assay type: cell-based
Experimental: Human keratinocyte HaCaT cells were grown in DMEM/high glucose (Hyclone, UT) containing 10% fetal bovine serum (Mediatech, Corning, Manassas, VA). […] The mixture was incubated at 37° C. in 5% CO2 for 24 hours.
(§5) HepG2 cells were cultured in ATCC-formulated Eagle's Minimum Essential Medium with 10% FBS. A549 cells were grown in ATCC-formulated F-12K Medium containing 10% FBS.

P. aeruginosa E411-17 = experiment: microbe, parasite or virus in culture; assay type: cell-based, Pseudomonas aeruginosa; settings: for MIC: read-out: Antimicrobial activity (MIC)
Experimental: as §2, §3, §1, §4

A. baumannii B28-16 = assay type: cell-based, Acinetobacter baumannii; settings: B28-16
Experimental: as §2, §1

E. coli E423-17 = assay type: cell-based, Escherichia coli; settings: E423-17
Experimental: as §2, §3, §1, §4

S. epidermidis 1457 = experiment: microbe, parasite or virus in culture; assay type: cell-based, Staphylococcus epidermidis; settings: for MIC: read-out: Antimicrobial activity (MIC) S. epidermidis 1457
Experimental: as §2, §1

Cytotoxicity assay (MTS) = assay type: cell-based; settings: human, HepG2 cells, read-out: LC50
Experimental: as §5

MRSA USA300 = experiment: microbe, parasite or virus in culture; assay type: cell-based, Staphylococcus aureus
Experimental: The experiment was conducted as described (Lakshmaiah et al. (2020) Proc. Natl. Acad. Sci., 117:19446-19454). Briefly, MRSA USA300 was grown to the exponential phase in MHB and diluted to OD600 0.001 (˜10^5 CFU/mL). Aliquots of 90 μL were added to a 96-well polystyrene microplate (Costar, Corning, NY) containing 10 μL of serially diluted LL-37mini, nafcillin, or daptomycin. After overnight incubation at 37° C., the plates were read at 600 nm using a ChroMate™ microplate reader (GMI, Ramsey, MN). Untreated bacterial culture and medium were included as untreated control and blank, respectively. The MIC is the lowest peptide concentration that inhibited the bacterial growth. The wells with sub-MIC levels of the peptides that retained growth approximately half the growth of the control wells were reinoculated in fresh MHB with sub-MIC concertation of peptides or antibiotics to attain exponential phase for MIC determination. In total, 17 passages of the bacterial cultures were conducted. A rapid increase in MIC is an indication of antibiotic resistance.

[2] = Effect of MHB dilution on antibacterial activity of a panel of antibiotics; assay type: cell-based; settings: MHB from 100 to 12.5%
Experimental: FIGS. 2A-2D show biofilm disruption activity of human LL-37 (FIGS. 2A and 2B) and 17BIPHE2 (FIGS. 2C and 2D) against the 24 hour preformed biofilms of S. aureus USA300 LAC in different MHB media: 12.5% MHB (FIGS. 2A and 2C) and 100% MHB (FIGS. 2B and 2D). FIGS. 2E-2H show the treatment outcome of LL-37 (FIGS. 2E and 2F) and 17BIPHE2 (FIGS. 2G and 2H) against the 24-hour preformed biofilms of E. coli E423-17 in different MHB media: 12.5% MHB (FIGS. 2E and 2G) and 100% MHB (FIGS. 2F and 2H). […] Growth curves of S. aureus USA 300 LAC (FIGS. 2J-2K) and P. aeruginosa 152 (FIGS. 2L-2M) in 12.5%, 25%, 50% and 100% MHB or TSB medium (curves from bottom to top).
The effects of MHB dilution on the antimicrobial activity of a panel of antibiotics was also compared (FIG. 2I).

[3] = USA300, pH 6.21, read-out: Antimicrobial activity (MIC)
[4] = USA300, pH 7.22, read-out: Antimicrobial activity (MIC)
[5] = USA300, pH 8.13, read-out: Antimicrobial activity (MIC)
[6] = USA300, read-out: Antimicrobial activity (MIC)

Compound	MIC P. aeruginosa E416-17 (P. aeruginosa E416-17) [µM]	MIC K. pneumoniae E406-17 (K. pneumoniae E406-17) [µM]	Hemolysis (HC10), 10% hemolytic concentration (human red blood cells) [µM]	MIC (S. aureus USA300 LAC; [3]) [µM]	MIC (S. aureus USA300 LAC; [4]) [µM]	MIC (S. aureus USA300 LAC; [5]) [µM]	MIC (S. aureus USA300 LAC; [6]) [µM]	CC50 at 24 h (Cytotoxicity assay (MTS)) [µM]	Antimicrobial activity (MIC) P. aeruginosa E411-17 (P. aeruginosa E411-17; E411-17) [µM]	MIC (P. aeruginosa E411-17; E411-17, pH 6.21) [µM]	MIC (P. aeruginosa E411-17; E411-17, pH 8.13) [µM]	Antimicrobial activity (MIC) A. baumannii B28-16 (A. baumannii B28-16) [µM]	Antimicrobial activity (MIC) E. coli E423-17 (E. coli E423-17) [µM]	also measured
VWNRLFRKWR-NH2 [RetroRIK-10++]	16	>32												
KRIWQRWK-NH2 [W540]														HC50 (50% hemolysis) (human red blood cells): ~150 µM; Activity (MIC) S. aureus (S. aureus USA300 LAC; USA300): >32 µM; toxicity to human HaCaT skin cells [1]: more toxic than the other peptides; Activity (MIC) P. aeruginosa (P. aeruginosa E411-17; E411-17): >32 µM; Activity (MIC) A. baumannii (A. baumannii B28-16): >32 µM; Activity (MIC) E.coli (E. coli E423-17): >32 µM; Activity (MIC) K. pneumoniae (K. pneumoniae E406-17): >32 µM
KRWWQWWK-NH2 [KR-8+]			300	>32	8	8	16	12.5	8	8	8	16 to 32	4	Antimicrobial activity (MIC) (S. aureus USA300 LAC; USA300): 16 to 32 µM; Antimicrobial activity (MIC) S. aureus USA300 (S. aureus USA300 LAC; USA300): 8 to 16 µM; Antimicrobial activity (MIC) S. epidermidis 1457 (S. epidermidis 1457): 16 to 32 µM; MIC (P. aeruginosa E411-17; E411-17, pH 7.22): 8 µM
CCOc1ccc2ccccc2c1C(=O)N[C@@H]1C(=O)N2[C@@H]1SC(C)(C)[C@@H]2C(=O)O [Nafcillin]														MIC (S. aureus USA300 LAC; Staphylococcus aureus, MRSA / USA300, MRSA in MHB, 20% serum, read-out: Antimicrobial activity (MIC)): 16 to 32 µM (≈ 6.63 to 13.3 µg/mL); MIC (S. aureus USA300 LAC; Staphylococcus aureus, MRSA / USA300, pH 6.3, MRSA in MHB, pH 6.3, read-out: Antimicrobial activity (MIC)): 16 µM (≈ 6.63 µg/mL); MIC (S. aureus USA300 LAC; Staphylococcus aureus, MRSA / USA300, pH 7.2, MRSA in MHB, pH 7.2, read-out: Antimicrobial activity (MIC)): 4 to 8 µM (≈ 1.66 to 3.32 µg/mL); increase of MIC (MRSA USA300; 17 passages at sub-MIC): 32 fold; MIC (MRSA USA300; Staphylococcus aureus, read-out: MIC after multiple passages): 128 µM (≈ 53.1 µg/mL); change in MIC with dilution of MHB [2]: small changes in MIC values
RRWWRWWL-NH2 [W544]														HC50 (50% hemolysis) (human red blood cells): about 80 μM; toxicity to human HaCaT skin cells [1]: more toxic than the other peptides; Activity (MIC) P. aeruginosa (P. aeruginosa E411-17; E411-17): 4 µM; Activity (MIC) A. baumannii (A. baumannii B28-16): 8 to 16 µM; Activity (MIC) K. pneumoniae (K. pneumoniae E406-17): 8 to 16 µM
LWGRFFRKWK-NH2 [LL-10+]	8	>32	> 400	>32	16	4	> 32	> 100	8 to 16	16	8	>32	32	MIC S. aureus USA300 (S. aureus USA300 LAC; USA300): 16 µM; MIC (S. aureus USA300 LAC; USA300, read-out: Antimicrobial activity (MIC) S. aureus USA300): 16 µM; MIC (S. epidermidis 1457): 32 µM; MIC (P. aeruginosa E411-17; E411-17, pH 7.22): 8 µM; MIC (P. aeruginosa E411-17; E411-17): >32 µM; MIC E. coli E423-17 (E. coli E423-17): 32 µM
RWWKKWWGK-NH2 [RK-9+]			> 400	>32	8	4	32	> 100	8 to 16	32	4	>32	8	Antimicrobial activity (MIC) (S. aureus USA300 LAC; USA300): 16 to 32 µM; Antimicrobial activity (MIC) S. aureus USA300 (S. aureus USA300 LAC; USA300): 8 to 16 µM; MIC (S. epidermidis 1457): 16 µM; Antimicrobial activity (MIC) (P. aeruginosa E411-17; E411-17, pH 7.22): 8 to 16 µM; MIC (P. aeruginosa E411-17; E411-17): >32 µM
KWKRFFRGWL-NH2 [RetroLL-10+]	4	>32												
